We go through 47 molecules from patent publication US10919896B2, “Preparation and uses of pyrimidinone derivatives” (Cancer Research Technology Limited, priority 2016, dated 2021).

One assay has as its target Cdc7/ASK (Homo sapiens, UniProt O00311). Nature of the assay: Cdc7 Biochemical Assay Method 1: 384 well ELISA, whole protein substrate MCM2, antibody against Phospho MCM2 (S53). Also noted: purchased. To be noted: 2 μM ATP, read-out: Biochemical Method 1 (pIC50) (converted). The procedure: This protocol describes a method for assaying Cdc7/ASK for activity. The assay is a 384 well ELISA assay, utilising a whole protein substrate (MCM2) and an antibody against Phospho MCM2 (S53). This site is thought to be specific to Cdc7/ASK phosphorylation and the assay has been validated using knockout mutants. Reagents • TBS: 25 mM Tris pH 7.2, 150 mM NaCl. (Dilute 10× stock by 1:10). • Wash Buffer: TBS+0.05% Tween 20. (Add 100 mL 1 M Tris pH 7.2, 120 mL 5 M NaCl and 2 mL 100% Tween 20 per 4 L). • Kinase Reaction Buffer: 50 mM Tris-HCl pH 8.5, 10 mM MgCl2, 1 mM DTT. (Dilute 10× stock by 1:10 and add 100 μL 1M DTT per 100 mL prior to assay). • Diethanolamine Buffer: 1 M diethanolamine pH 9.8, 0.5 mM MgCl2. • Stop Solution: 1 M NaOH. • MCM2 was expressed and purified in-house and used in the assay at a final assay concentration of 436 ng/well. • Cdc7/ASK is purchased from commercial suppliers and used in the assay at a final assay concentration of 37.97 ng/well or 20.63 nM. • ATP used as a final assay concentration of 2 μM. • Primary Antibody: Rabbit anti-Phospho MCM2 (S53 Antibody (BL3353)), is purchased from commercial suppliers at 0.2 mg/mL and used at a final assay concentration by diluting 1:800 in TBS. • Secondary Antibody: Anti-Rabbit/AP Antibody is supplied is purchased from commercial suppliers at 1 mg/mL and used at a final assay concentration by diluting 1:2000 in TBS. • Development Reagent: Dissolve one 20 mg PNPP tablet (Sigma, product […], 20 mg per tablet) per 20 mL diethanolamine Buffer (or one 5 mg PNPP tablet per 5 mL diethanolamine buffer). Cover in foil and leave shaking on a roller shaker at room temperature for up to an hour to dissolve. Methods • 1. Add 20 μL 1× working stock of Substrate (MCM2) in TBS to all wells of a clear, 384 well, Nickel-chelate microplate to give a final concentration of […]. Incubate at room temperature for at least 1 hour. Plates can be pre-coated for 1 hour and stored at 4° C. for up to 8 days. • 2. Wash with TBS+0.05% Tween 20 (80 μL×3). • 3. Add 2 μL 10× test compounds, including the positive control, in 40% DMSO/water to 'test' wells. Add 2 μL 40% DMSO/water to 'control' and 'blank' wells. The final DMSO concentration will be 4%. • 4. Add 13 μL CDC7/ASK Kinase (1.5× stock) in Kinase Reaction Buffer to 'test' and 'control' wells to give a final concentration of […]. Add 13 μL Kinase Reaction Buffer to 'blank' wells. • 5. Add 5 μL ATP (4× stock) in Kinase Reaction Buffer to all wells to give a final concentration of 2 μM. • 6. Incubate at room temperature for 90 minutes. • 7. Wash with TBS+0.05% Tween 20 (80 μL×3). • 8. Add 20 μL 1× working solution of Primary Antibody in TBS to all wells. Incubate at room temperature for 30 minutes. • 9. Wash with TBS+0.05% Tween 20 (80 μL×3). • 10. Add 20 μL 1× working solution of Secondary Antibody in TBS to all wells. Incubate at room temperature for 30 minutes. • 11. Wash with TBS+0.05% Tween 20 (80 μL×3). • 12. Add 20 μL 1× Development Reagent to all wells. • 13. Incubate at room temperature for 2 hours. Stop the reaction by adding 20 μL Stop Solution to all wells and record Absorbance on a Pherastar plate reader. Percentage inhibition values were calculated from absorbance values, using the no compound (DMSO) and no enzyme control values as 0% and 100% inhibition, respectively. IC50 determination was performed with ExcelFit software (IDBS) using curve fit 205. Z' factors were determined for each plate tested and were all above 0.5. Method 2
A general note: In an ELISA, binding on a coated surface is turned into a signal by an enzyme label.

For a further assay, the target named is Cdc7/Dbf4 (Homo sapiens, UniProt O00311). Nature of the assay: Cdc7 Biochemical Assay Method 3: Cdc7/Dbf4 Enzyme TR-FRET Assay measuring pS40MCM2. The following applies: 1 μM ATP, read-out: Biochemical Method 3 (pIC50) (converted). Here is the method: This protocol describes a method for assaying a compounds' ability to inhibit Cdc7 activity by measuring pS40MCM2 levels in a Cdc7/Dbf4 Enzyme TR-FRET Assay.
Sequence of Cdc7/Dbf4 (O00311 whole entry): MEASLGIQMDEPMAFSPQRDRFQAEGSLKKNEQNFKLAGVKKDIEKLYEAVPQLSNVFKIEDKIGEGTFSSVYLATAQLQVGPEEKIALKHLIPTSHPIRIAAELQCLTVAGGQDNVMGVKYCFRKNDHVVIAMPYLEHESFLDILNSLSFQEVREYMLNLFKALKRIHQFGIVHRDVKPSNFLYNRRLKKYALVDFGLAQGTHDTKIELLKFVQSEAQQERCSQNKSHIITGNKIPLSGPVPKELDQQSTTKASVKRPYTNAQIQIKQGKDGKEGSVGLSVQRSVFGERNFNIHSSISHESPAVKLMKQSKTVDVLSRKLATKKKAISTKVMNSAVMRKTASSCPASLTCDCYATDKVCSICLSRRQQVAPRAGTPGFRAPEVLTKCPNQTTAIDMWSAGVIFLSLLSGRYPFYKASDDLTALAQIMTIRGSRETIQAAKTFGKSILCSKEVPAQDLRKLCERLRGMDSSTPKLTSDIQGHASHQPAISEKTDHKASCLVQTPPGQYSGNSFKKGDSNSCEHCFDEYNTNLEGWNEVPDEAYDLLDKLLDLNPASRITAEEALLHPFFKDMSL
Sequence of Cdc7/Dbf4 (Q9UBU7 whole entry partner): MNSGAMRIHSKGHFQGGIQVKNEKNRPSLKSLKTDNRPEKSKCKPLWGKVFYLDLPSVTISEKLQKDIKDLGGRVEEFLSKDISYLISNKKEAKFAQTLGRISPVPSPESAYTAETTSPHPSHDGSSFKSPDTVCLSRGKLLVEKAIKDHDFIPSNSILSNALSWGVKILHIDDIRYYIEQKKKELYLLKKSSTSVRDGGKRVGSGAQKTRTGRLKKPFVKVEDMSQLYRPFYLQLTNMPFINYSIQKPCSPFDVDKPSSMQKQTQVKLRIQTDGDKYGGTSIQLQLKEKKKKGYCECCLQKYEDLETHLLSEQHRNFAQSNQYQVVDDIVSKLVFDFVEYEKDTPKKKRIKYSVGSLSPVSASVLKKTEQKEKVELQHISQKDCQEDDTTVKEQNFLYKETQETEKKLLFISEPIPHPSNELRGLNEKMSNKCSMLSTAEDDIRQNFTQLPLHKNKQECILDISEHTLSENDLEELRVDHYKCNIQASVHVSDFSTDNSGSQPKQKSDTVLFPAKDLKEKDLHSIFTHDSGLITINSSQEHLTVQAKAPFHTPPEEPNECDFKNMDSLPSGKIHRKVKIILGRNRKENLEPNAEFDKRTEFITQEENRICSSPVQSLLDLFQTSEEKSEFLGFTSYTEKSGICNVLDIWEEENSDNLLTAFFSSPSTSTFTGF
2.5 nM Cdc7/Dbf4 was incubated with 100 nM of biotin-labelled peptide 35-TDALTS(pS)PGRDLP in the presence of 1 μM ATP at 25° C. for 120 minutes. The phosphorylation of the peptide was detected using TR-FRET. Anti-Mcm2 (pS40) antibody, Terbium anti-rabbit secondary antibody and Streptavidin-Alexa Fluor488 form the detection system.
(In TR-FRET formats the signal depends on donor and acceptor labels being close together.)

Sequence of Cdc7/ASK (O00311 whole entry): as the sequence (O00311 whole entry) above
Sequence of Cdc7/ASK (Q9UBU7 whole entry partner): as the sequence (Q9UBU7 whole entry partner) above

As for `O=c1[nH]c(-c2ccncc2)nc(N2CCN[C@H](Cc3ccccc3)C2)c1Cl` [Compound 165], the IC50 on Cdc7/ASK was 126 nM.

Turning to `C[C@H]1CN(c2nc(-c3ccncc3)[nH]c(=O)c2Cl)[C@@H](C)CN1` [Compound 172], the IC50 at Cdc7/ASK is 12.6 nM.

Regarding `C[C@@H]1CN[C@@H](C)CN1c1nc(-c2ccncc2)[nH]c(=O)c1Cl` [Compound 173], the IC50 at Cdc7/ASK is 85.1 nM.

On to `O=c1[nH]c(-c2ccncc2)nc(N2CCN[C@H](CCO)C2)c1Cl` [Compound 174], for which, at Cdc7/ASK, the IC50 is 30.9 nM.

Turning to `O=c1[nH]c(-c2ccncc2)nc(N2CCN[C@@H](CCO)C2)c1Cl` [Compound 175], the IC50 at Cdc7/ASK is 57.5 nM.

Consider `O=c1[nH]c(-c2ccncc2)nc(N2CCNC(c3cccc(O)c3)C2)c1Cl` (centres unmarked) [Compound 178], for which the IC50 on Cdc7/ASK was 4.27 nM.

For the molecule `COc1cccc(C2CN(c3nc(-c4ccncc4)[nH]c(=O)c3Cl)CCN2)c1` (centres unmarked) [Compound 179], the IC50 on Cdc7/ASK was 23.4 nM.

With `CC(C)(O)[C@H]1CN(c2nc(-c3ccnc(F)c3)[nH]c(=O)c2Cl)CCN1` [Compound 187], the IC50 on Cdc7/Dbf4 was 1.86 nM.

Turning to `O=c1[nH]c(-c2ccnc(F)c2)nc(N2C[C@H](O)C[C@H](O)C2)c1Cl` [Compound 189], the IC50 at Cdc7/Dbf4 was 1.62 nM.

Take `O=c1[nH]c(-c2ccnc(F)c2)nc(SC2CCOCC2)c1Cl` [Compound 191]: the IC50 at Cdc7/Dbf4 was 3.72 nM.

Take `O=c1[nH]c(-c2ccnc(F)c2)nc(SC2CCNCC2)c1Cl` [Compound 193]: the IC50 on Cdc7/Dbf4 is 2.88 nM.

Consider `O=c1[nH]c(-c2ccnc(F)c2)nc(OC2CNC2)c1Cl` [Compound 194], for which the IC50 at Cdc7/Dbf4 is 14.5 nM.

On to `N[C@H]1CC[C@@H](Oc2nc(-c3ccnc(F)c3)[nH]c(=O)c2Cl)C1` [Compound 195], for which the IC50 at Cdc7/Dbf4 was 1.32 nM.

As to `O=c1[nH]c(-c2ccnc(F)c2)nc(N2CC3(CNC3)C2)c1Cl` [Compound 198], on Cdc7/Dbf4, the IC50 was 66.1 nM.

Regarding `O=c1[nH]c(-c2ccnc(F)c2)nc(OC2COC2)c1Cl` [Compound 199], the IC50 on Cdc7/Dbf4 was 389 nM.

On to `O=c1[nH]c(-c2ccnc(F)c2)nc(O[C@H]2CCOC2)c1Cl` [Compound 200], for which, at Cdc7/Dbf4, the IC50 is 8.13 nM.

With `O=c1[nH]c(-c2ccnc(F)c2)nc(N2CCOC(CN3CCCCC3)C2)c1Cl` (centres unmarked) [Compound 202], the IC50 at Cdc7/Dbf4 is 10 nM.

In the case of `O=c1[nH]c(-c2ccnc(F)c2)nc(N2CCCC(F)(F)CC2)c1Cl` [Compound 204], on Cdc7/Dbf4, the IC50 is 4.07 nM.

Regarding `O=c1[nH]c(-c2ccnc(F)c2)nc(N2CCOCC(O)C2)c1Cl` (centres unmarked) [Compound 207], the IC50 on Cdc7/Dbf4 was 1.29 nM.

`O=c1[nH]c(-c2ccnc(F)c2)nc(N2CCC[C@H](Nc3ccccc3)C2)c1Cl` [Compound 209]: the IC50 at Cdc7/Dbf4 is 85.1 nM.

For `CN(c1nc(-c2ccnc(F)c2)[nH]c(=O)c1Cl)C1CCNCC1(C)C` (centres unmarked) [Compound 210], the IC50 at Cdc7/Dbf4 was 4.37 nM.

On to `CC1(C)CNCCC1Nc1nc(-c2ccnc(F)c2)[nH]c(=O)c1Cl` (centres unmarked) [Compound 211], for which the IC50 at Cdc7/Dbf4 is 17.4 nM.

With `O=c1[nH]c(-c2ccnc(F)c2)nc(N2CCC(CN3CCOCC3)C2)c1Cl` (centres unmarked) [Compound 212], on Cdc7/Dbf4, the IC50 was 79.4 nM.

For the molecule `O=c1[nH]c(-c2ccnc(F)c2)nc(N2CCC3(CCCCN3)C2)c1Cl` (centres unmarked) [Compound 213], the IC50 on Cdc7/Dbf4 is 53.7 nM.

Take `O=c1[nH]c(-c2ccnc(F)c2)nc(N2CC[C@@H](O)C2)c1Cl` [Compound 214]: the IC50 on Cdc7/Dbf4 is 14.8 nM.

Consider `O=c1[nH]c(-c2ccnc(F)c2)nc(N2CC[C@H](O)C2)c1Cl` [Compound 215], for which the IC50 on Cdc7/Dbf4 is 14.1 nM.

As for `O=c1[nH]c(-c2ccnc(F)c2)nc(N2CCOC3CNCC32)c1Cl` (centres unmarked) [Compound 216], the IC50 on Cdc7/Dbf4 is 1.7 nM.

As to `O=c1[nH]c(-c2ccnc(F)c2)nc(N2CCC3(CCCN3)C2)c1Cl` (centres unmarked) [Compound 217], the IC50 on Cdc7/Dbf4 was 45.7 nM.

Turning to `O=c1[nH]c(-c2ccnc(F)c2)nc(N2CCC3(CCNC3)C2)c1Cl` (centres unmarked) [Compound 218], the IC50 on Cdc7/Dbf4 is 8.13 nM.

Take `NC[C@H]1CCN(c2nc(-c3ccnc(F)c3)[nH]c(=O)c2Cl)C1` [Compound 219]: the IC50 on Cdc7/Dbf4 is 6.76 nM.

`O=c1[nH]c(-c2ccnc(F)c2)nc(N2CCC3(CCCNC3)C2)c1Cl` (centres unmarked) [Compound 220]: the IC50 at Cdc7/Dbf4 was 15.5 nM.

With `O=c1[nH]c(-c2ccnc(F)c2)nc(NC2CCNCC2)c1Cl` [Compound 222], the IC50 on Cdc7/Dbf4 was 13.5 nM.

With `O=c1[nH]c(-c2ccnc(F)c2)nc(NCC2COCCN2)c1Cl` (centres unmarked) [Compound 224], at Cdc7/Dbf4, the IC50 was 724 nM.

As for `O=c1[nH]c(-c2ccnc(F)c2)nc(N2CCC3CNCCC32)c1Cl` (centres unmarked) [Compound 225], on Cdc7/Dbf4, the IC50 is 2.09 nM.

Take `O=c1[nH]c(-c2ccnc(F)c2)nc(N2CC3CNCC3C2)c1Cl` (centres unmarked) [Compound 226]: the IC50 at Cdc7/Dbf4 was 3.02 nM.

On to `O=c1[nH]c(-c2ccnc(F)c2)nc(N2CCOC3(CCNCC3)C2)c1Cl` [Compound 227], for which the IC50 at Cdc7/Dbf4 was 2.24 nM.

Consider `O=c1[nH]c(-c2ccnc(F)c2)nc(N2CCC(C3CCOCC3)C2)c1Cl` (centres unmarked) [Compound 228], for which the IC50 on Cdc7/Dbf4 is 53.7 nM.

On to `CN(c1nc(-c2ccnc(F)c2)[nH]c(=O)c1Cl)C1CCOCC1` [Compound 229], for which the IC50 at Cdc7/Dbf4 was 8.51 nM.

Turning to `O=c1[nH]c(-c2ccnc(F)c2)nc(N2CCC3(CCNCC3)C2)c1Cl` [Compound 230], the IC50 on Cdc7/Dbf4 is 6.61 nM.

Turning to `CNC(=O)C1CCN(c2nc(-c3ccnc(F)c3)[nH]c(=O)c2Cl)CC1` [Compound 231], the IC50 on Cdc7/Dbf4 is 2.88 nM.

Take `O=C1NC(=O)C2(CCN(c3nc(-c4ccnc(F)c4)[nH]c(=O)c3Cl)CC2)N1` [Compound 233]: the IC50 on Cdc7/Dbf4 was 2.19 nM.

`O=c1[nH]c(-c2ccnc(O)c2)nc(C2CCOCC2)c1Cl` [Compound 402, 5-chloro-2-(2-hydroxy-4-pyridyl)-4-tetrahydropyran-4-yl-1H-pyrimidin-6-one]: the IC50 at Cdc7/ASK was 112 nM.

In the case of `N#Cc1c(C2CCOCC2)nc(-c2ccncc2)[nH]c1=O` [Compound 403, 6-oxo-2-(4-pyridyl)-4-tetrahydropyran-4-yl-1H-pyrimidine-5-carbonitrile], the IC50 on Cdc7/ASK is 25.7 nM.

With `O=c1[nH]c(-c2ccncc2)nc(C2=CCOCC2)c1Cl` [Compound 404, 5-chloro-4-(3,6-dihydro-2H-pyran-4-yl)-2-(4-pyridyl)-1H-pyrimidin-6-one], the IC50 on Cdc7/ASK was 166 nM.

As for `CC(C)(C)OC(=O)N1CC=C(c2nc(-c3ccncc3)[nH]c(=O)c2Cl)CC1` [Compound 405, tert-butyl 4-[5-chloro-6-oxo-2-(4-pyridyl)-1H-pyrimidin-4-yl]-3,6-dihydro-2H-pyridine-1-carboxylate], the IC50 at Cdc7/ASK was 562 nM.

On to `O=c1[nH]c(-c2ccncc2)nc(C2CCOCC2)c1C(F)(F)F` [Compound 406, 2-(4-pyridyl)-4-tetrahydropyran-4-yl-5-(trifluoromethyl)-1H-pyrimidin-6-one], for which, at Cdc7/ASK, the IC50 is 851 nM.

For `CC(C)(O)[C@@H]1CN(c2nc(-c3ccncc3)[nH]c(=O)c2Cl)CCN1` [Compound 407, 5-chloro-4-[(3S)-3-(1-hydroxy-1-methyl-ethyl)piperazin-1-yl]-2-(4-pyridyl)-1H-pyrimidin-6-one], the IC50 at Cdc7/ASK was 60.3 nM.
